Structures are written as SMILES. Read-outs that look alike come from different tables or passages of the source.

Series [1] is described as follows: Plasma stability. Type of series: in vitro ADME.
A short description of series [2]: Stability in SGF. Type of series: in vitro ADME.
Series [3] in a line: In vivo pharmacokinetics and brain distribution, single i.v. or p.o. dose. Also on record: species or system male C57BL/6 mice. The settings on record: mice; for clearance / bioavailability: male, C57BL/6, mouse, plasma; for clearance: read-out: PK Clearance; for bioavailability: po, read-out: Oral Bioavailablility. As to the method: The pharmacokinetics and brain distribution of the compounds described herein was determined in male C57BL/6 mice following single intravenous or oral dose administration. A group of 54 male mice were divided into two groups of 27 mice. […] Blood samples were collected pre-dose and at 0.08, 0.25, 0.5, 1, 2, 4, 8, and 24 h post-dose (i.v.), and pre-dose, and at 0.25, 0.5, 1, 2, 4, 6, 8 and 24 h post-dose (p.o.). Blood was collected from sets of three mice at each time point in labeled microcentrifuge tubes containing K2EDTA as anticoagulant. Plasma samples were separated by centrifugation of whole blood and stored below −70° C. until bioanalysis. After collecting blood samples, mice were humanely euthanized by CO2 asphyxiation and brain was collected at the same time points. Following collection, the brain samples were washed in ice-cold phosphate buffer saline (pH 7.4), gently dried on filter paper, weighed and placed in polypropylene tubes. Further brain samples were homogenized using phosphate buffer saline pH 7.4 and the total homogenate volume was thrice the brain weight. The samples were then stored below −70° C. until bioanalysis. All samples were processed for analysis by protein precipitation using acetonitrile and analyzed with fit-for-purpose LC/MS/MS method (LLOQ: 1.01 ng/mL for plasma and brain). Pharmacokinetic parameters were calculated using the non-compartmental analysis tool of Phoenix WinNonlin (Version 6.3).

For series [4], the system named is cardiac ASYN in Line 61 ASYN transgenic mice. As to the kind of experiment: Post-mortem Western blot of cardiac ASYN. In kind it is in vivo, mouse. The settings on record: p<0.0001 vs. vehicle-treated ASYN transgenic mice. An excerpt: Like bowel dysfunction, alterations in cardiac biochemistry and function may precede Parkinson's disease diagnosis by 20 years or more. Well-characterized functional alterations in PD patients include altered heart rate variability and orthostatic hypotension (Kaufmann, H. et al., Handbook Clin. Neurol. 2013, 117, 259-278; Jain, S. et al., Neurobiol. Dis. 2012, 46(3), 572-580; Senard, J. M. et al., Rev. Neurol. (Paris) 2010, 166(10), 779-784; Post, K. K. et al., Parkinsonism Relat. Disord. 2008, 14(7), 524-531). These functional changes are accompanied by pathological findings of loss of myocardial noradrenergic innervation and the presence of ASYN aggregates in cardiac autonomic nerves (Jellinger, K. A., J. Neurol. Sci. 2011, 310 (1-2), 107-111). […] For the present study, post-mortem Western blot evaluations of cardiac ASYN by Western blot analysis were performed to confirm the presence in ASYN transgenic cardiac tissue and to evaluate the effects of Example 1 on transgenic cardiac levels of ASYN (FIG. 10). There was a statistically significant increase in detected cardiac levels of ASYN in vehicle-treated ASYN transgenic mice relative to vehicle-treated non-transgenic control mice (***p<0.001).

Series [5] deals with transgenic ASYN protein in Line 61 ASYN transgenic mouse. As to the kind of experiment: Western Blot analysis of cerebral cortical and hippocampal brain homogenates. Type of series: in vivo. As to the method:
(§1) Example 1 was evaluated in a transgenic mouse model of PD overexpressing human wild-type ASYN under the Thy-1 promoter (also referred to as the Line 61 ASYN transgenic mouse), by administering Example […] 0, 1, or 5 mg/kg (i.p.) once daily (five days per week) for three months and then assessing PD-relevant sensorimotor performance, biochemical alterations, and neuropathological changes in ASYN and related proteins.
(§2) Biochemical evaluations of oligomeric proteins using A11 antibody dot blot methods (including ASYN) in cortical homogenates were performed.
For orientation: A western blot detects proteins with antibodies after separation by electrophoresis.

Series [6] deals with ASYN in Line 61 ASYN transgenic mouse. The experiment in a line: ASYN immunolabeling in cortical neuropil and neuronal cell bodies. The settings on record: for alpha-synuclein immunolabeling in cortical neuropil: p<0.0001 vs. vehicle-treated ASYN transgenic mice. In kind it is in vivo. As to the method: These neuropathological findings were reconfirmed in the current study using the methods described by Masliah and colleagues. Example 1 administration (1 and 5 mg/kg dosing) produced statistically significant decreases in ASYN levels as determined by effects on ASYN immunolabeling (FIGS. 6 and 7). There was a statistically significant increase in ASYN immunolabeling with the Millipore anti-alpha-synuclein antibody in the cortical neuropil (****p<0.0001) (FIG. 6A) and in neuronal cell bodies of ASYN transgenic mice (**p<0.01) (FIG. 6B) relative to non-transgenic/vehicle controls.

The test system of series [7] is Line 61 ASYN transgenic mice. As to the kind of experiment: Fecal boli counts in a novel environment. In kind it is in vivo, mouse. As to the method: An earlier published study included a report that Line 61 ASYN transgenic mice have decreased colonic motility, fecal output, and weight (Wang, L. et al. Neurogastroenterol. Motil. 2012, 24(9), e425-436). For the present study, an assessment of fecal boli counts was conducted in conjunction with a spontaneous locomotor activity test session. At the conclusion of a five-minute test session, the experimenter counted the number of fecal boli present in the test chamber, and the results are presented in FIG. 9.

Series [8] relates to oligomers in Line 61 ASYN transgenic mouse. As to the kind of experiment: A11 antibody dot blot of oligomeric proteins in cortical homogenates. The settings on record: 5 mg/kg; p<0.001 vs. vehicle-treated ASYN transgenic mice. In kind it is in vivo. Here is the method:
as §1, §2

In series [9] the test system is PDNG78 transgenic mice. As to the kind of experiment: Longitudinal retinal imaging of ASYN-GFP. In kind it is in vivo, mouse. The settings on record: 5 mg/kg i.p., after approximately 60 days through 90 days. As to the method:
A total of four imaging sessions were conducted, including a baseline prior to starting treatments and three subsequent imaging sessions at approximately one-month intervals.

In series [10] the test system is Line 61 ASYN transgenic mouse. The experiment in a line: Round Beam Task, sensorimotor impairment. Type of series: in vivo. The settings on record: for number of slips, Round Beam Task: Example 6A, three months, vs. vehicle-treated transgenic mice; for number of slips, Round Beam Motor Performance assay: Example 6B. An excerpt: The Round Beam Task was used to assess sensorimotor impairments, using number of slips as the primary outcome measure (FIG. 4).

`CCCCNC(=O)C(Cc1c[nH]c2ccccc12)NC(=O)c1cnc(N2CCNCC2)s1` (centres unmarked) [Comp. A, reference compound]: the “Plasma Stability” value in [1] (@ 60 min) is recorded as 35% @. For the same compound, the “Stability in SGF” value in [2] is listed as “stable”. In series [3] (intravenous, at 10 mg/kg), the clearance came out at 71 mL/min/kg. Also, the “B:P ratio (PO)” value in series [3] (at 10 mg/kg) turned out to be 0.05.
With `CCCNC(=O)NC(Cc1c[nH]c2ccccc12)NC(=O)c1cnc(N2CCN(C)CC2)s1` (centres unmarked) [Comp. B, reference compound], in [1] (@ 60 min), the “Plasma Stability” value was 89% @. Besides, the “Stability in SGF” value in series [2] is “unstable”. Further, the clearance in series [3] (intravenous, at 10 mg/kg) is 258 mL/min/kg. In [3] (at 10 mg/kg), the bioavailability was determined as 14%, the “B:P ratio (IV)” value came to 0.1 and the “B:P ratio (PO)” value turned out to be 0.08.
As to `CCCCC(Cc1c[nH]c2ccccc12)NC(=O)c1cnc(N2CCN(C)CC2)s1` (centres unmarked) [Example 1, N-(1-(1H-Indol-3-yl)hexan-2-yl)-2-(4-methylpiperazin-1-yl)thiazole-5-carboxamide], the “Plasma Stability” value in series [1] (@ 120 min) is recorded as 100% @. Moreover, in series [2], the “Stability in SGF” value is reported as “stable”. The “cardiac levels of ASYN” value in series [4] (0.5 mg/kg) and in series [4] (1 mg/kg) was “statistically significant normalizations of ASYN levels” throughout. For the same compound, the “transgenic ASYN protein levels” value in [5] is given as “statistically significant reductions”. Also, in series [3] (iv, at 10 mg/kg), the clearance came to 81 mL/min/kg. In addition, the bioavailability in series [3] (at 10 mg/kg) turned out to be 53%. The “B:P ratio (IV)” value in series [3] (at 10 mg/kg) amounted to 2.0. Further, the “B:P ratio (PO)” value in series [3] (at 10 mg/kg) came out at 0.4. The “alpha-synuclein immunolabeling in cortical neuropil” value in series [6] (1 mg/kg) and in [6] (5 mg/kg) was “statistically significant decreases in alpha-synuclein immunolabeling” in each case. Further, the “number of ASYN immunolabeled neuron cell bodies” value in series [6] (5 mg/kg) is listed as “non-statistically significant decrease”. The “number of fecal boli produced” value in [7] (ASYN transgenic mice, 0.5 mg/kg, p<0.05 vs. vehicle) was “restored function”; in [7] (ASYN transgenic mice, 1 mg/kg, p<0.001 vs. vehicle), “restored function”; in series [7] (non-transgenic mice) it was “no effect”. Also, the “oligomers (A11 immunostaining) in cytosolic fraction of frontal cortex” value in series [8] was “statistically significant decrease in oligomers”. The “percentage of ASYN-GFP positive area in retinal images” value in [9] (p<0.001 vs. vehicle) is on record as “decreased”. In addition, the “number of ASYN-GFP positive particles in retinae” value in [9] (p<0.01 vs. vehicle) is recorded as “decreased”. Also, the “number of slips, Round Beam Task” value in series [10] (1 mg/kg i.p. once daily) and in series [10] (5 mg/kg i.p. once daily) was “statistically significantly reductions in slips” throughout. Besides, the “number of slips, Round Beam Motor Performance assay” value is listed as “non-statistically significant decrease in slips” in [10] (0.5 mg/kg) and “statistically significant improvement (decreased slips)” in series [10] (1 mg/kg, p<0.01 vs. vehicle-treated ASYN transgenic mice).
For the compound `CN1CCN(CCc2ncc(C(=O)NCCc3c[nH]c4ccccc34)s2)CC1` [Example 4, N-(2-(1H-Indol-3-yl)ethyl)-2-(2-(4-methylpiperazin-1-yl)ethyl)thiazole-5-carboxamide], in [1] (@ 120 min), the “Plasma Stability” value came to 25% @. Further, in series [2], the “Stability in SGF” value is given as “stable”. In addition, the clearance in [3] (iv, at 10 mg/kg) came out at 95 mL/min/kg. Further, in [3] (at 10 mg/kg), the bioavailability is 100%, the “B:P ratio (IV)” value is 0.4 and the “B:P ratio (PO)” value was determined as 0.1.
Take `CCCCC(Cc1c[nH]c2ccccc12)NC(=O)c1cnc(CCN2CCN(C)CC2)s1` (centres unmarked) [Example 5, N-(1-(1H-Indol-3-yl)hexan-2-yl)-2-(2-(4-methylpiperazin-1-yl)ethyl)thiazole-5-carboxamide]: the “Plasma Stability” value in series [1] (@ 120 min) was 100% @. Further, in series [2], the “Stability in SGF” value is “stable”. For the same compound, in series [3] (iv, at 10 mg/kg), the clearance stood at 24 mL/min/kg. In series [3] (at 10 mg/kg), the bioavailability worked out at 79%, the “B:P ratio (IV)” value was found to be 0.18 and the “B:P ratio (PO)” value stood at 0.05.
Regarding `CCCCC(Cc1c[nH]c2ccc(F)cc12)NC(=O)c1cnc(CCN2CCOCC2)s1` (centres unmarked) [Example 10, N-(1-(5-Fluoro-1H-indol-3-yl)hexan-2-yl)-2-(2-morpholinoethyl)thiazole-5-carboxamide], the clearance in [3] (intravenous, at 2 mg/kg) is 75 mL/min/kg. In [3] (at 10 mg/kg), the bioavailability came to 13% and the “B:P ratio (PO)” value turned out to be 0.15. In addition, the “B:P ratio (IV)” value in series [3] (at 2 mg/kg) stood at 0.8.
`CCCC[C@@H](Cc1c[nH]c2ccccc12)NC(=O)c1cnc(N2CCN(C)CC2)s1` [Example 27, (S)-N-(1-(1H-Indol-3-yl)hexan-2-yl)-2-(4-methylpiperazin-1-yl)thiazole-5-carboxamide]: the clearance in series [3] (iv, at 10 mg/kg) came out at 37 mL/min/kg. In series [3] (at 10 mg/kg), the bioavailability was determined as 57%, the “B:P ratio (IV)” value was 1.4 and the “B:P ratio (PO)” value was determined as 0.3.
As to `CCCC[C@H](Cc1c[nH]c2ccccc12)NC(=O)c1cnc(N2CCN(C)CC2)s1` [Example 28, (R)-N-(1-(1H-Indol-3-yl)hexan-2-yl)-2-(4-methylpiperazin-1-yl)thiazole-5-carboxamide], the clearance in [3] (iv, at 10 mg/kg) worked out at 69 mL/min/kg. Besides, in [3] (at 10 mg/kg), the bioavailability was found to be 14%, the “B:P ratio (IV)” value turned out to be 2.1 and the “B:P ratio (PO)” value was found to be 0.4.

Source of the values: patent US11078196B2, “Heteroaryl amides as inhibitors of protein aggregation” (UCB Biopharma SRL, priority 2014, dated 2021).
